Converted amounts (≈) assume the structure as drawn.
Conditions: buffer; pH 7.4; 200.0 µM

| Structure (SMILES) | solubility kinetic |
| --- | --- |
| O=C(Nc1cccnc1)c1ccc(CSc2ccccc2)cc1 | < 0.3 µg/mL |
| CC1CN(C(=O)Cn2c(=O)oc3ccccc32)CC(C)O1 (stereo not given) | 43.1 µg/mL (≈ 148 µM) |
| CCC(=O)Nc1ccc(-c2ccc(N3CCN(C)CC3)nn2)cc1 | > 48.8 µg/mL |
| O=c1[nH]cnc2cc(-c3ccc(Br)cc3)sc12 | 0.6 µg/mL (≈ 1.95 µM) |
| CCOC(=O)c1cc(NC(=O)Nc2cc(C)ccn2)c(C)nc1C | 0.3 µg/mL (≈ 0.914 µM) |
| Cc1ccc(C)c(NC(=O)CN(C)C(=O)COc2ccc3ccccc3c2)c1 | 3.1 µg/mL (≈ 8.23 µM) |
| O=S(=O)(Nc1ncccn1)c1cc(Cl)ccc1Cl | > 45.6 µg/mL |
| COc1ccc(CNC(=O)/C=C/C(=O)O)cc1 | 35 µg/mL (≈ 149 µM) |
| NS(=O)(=O)c1cccc(NC(=O)COC(=O)CC2Sc3ccccc3NC2=O)c1 (stereo not given) | 32.5 µg/mL (≈ 74.6 µM) |
| CSc1ccc(Cl)c(C(=O)Nc2ccc(C)cn2)c1 | 4.8 µg/mL (≈ 16.4 µM) |
| Cc1ncc(CN2CCCC(C(=O)c3sccc3C)C2)s1 (stereo not given) | 37.4 µg/mL (≈ 117 µM) |
| COc1ccc(Cc2nc3ccccc3n2C)cc1.Cl | 42.3 µg/mL |
| CC(C(=O)N1CCN(c2ccccc2)CC1)c1ccc([N+](=O)[O-])cc1 (stereo not given) | 40.7 µg/mL (≈ 120 µM) |
| COc1ccc(C(=O)OCC(=O)N2CCN(C(=O)c3ccco3)CC2)cc1OC | > 60.4 µg/mL |
| CCOC(=O)c1ccc(Nc2nc(C)cc(C)n2)cc1 | 0.2 µg/mL (≈ 0.737 µM) |
| CC(C)CN(CC(C)C)C(=O)COc1ccccc1C(N)=O | > 46 µg/mL |
| CC(Cc1ccccc1)NC(=S)CN1CCCC1=S (stereo not given) | 38.9 µg/mL (≈ 133 µM) |
| O=C(Nc1ccc(NC(=O)c2ccccc2O)cc1)Nc1ccc(F)cc1F | 1.1 µg/mL (≈ 2.87 µM) |
| COc1ccc(Nc2nc(NCc3ccco3)nc(N)c2[N+](=O)[O-])cc1 | 0.2 µg/mL (≈ 0.561 µM) |
| COc1ccc(/C(N)=N/OC(=O)C2CCCCC2)cc1OC | 35.2 µg/mL (≈ 115 µM) |
| CN(C)C(=O)N1CCNCC1.Cl | > 29.1 µg/mL |
| CC1Oc2ccccc2OC1C(=O)Nc1nccs1 (stereo not given) | 18.1 µg/mL (≈ 65.5 µM) |
| COc1cc2c(cc1OC)CN(CC(=O)Nc1ccc(F)cc1F)CC2 | 44 µg/mL (≈ 121 µM) |
| Cc1ccc2cccc(NS(=O)(=O)c3ccccc3)c2n1 | < 0.3 µg/mL |

| Structure (SMILES) | solubility kinetic |
| --- | --- |
| O=C(CNC(=O)c1ccccc1)NCCCSc1ccccc1 | 25.2 µg/mL (≈ 76.7 µM) |
| CN(C)c1ccc(/C=N/NC(=O)c2ccc3nc[nH]c3c2)cc1 | > 46.1 µg/mL |
| O=c1[nH]c2ccccc2nc1Cc1ccc(Cl)cc1 | 0.9 µg/mL (≈ 3.32 µM) |
| Cl.O=C(CCN1CCOCC1)NCc1ccccc1 | > 42.7 µg/mL |
| Cc1cc(SCC(=O)Nc2cccnc2Cl)nc2ccccc12 | < 0.2 µg/mL |
| Cc1ccc(C(=O)OCC(=O)Nc2ccc(F)c(Cl)c2)o1 | 2.9 µg/mL (≈ 9.3 µM) |
| COc1ccc(S(=O)(=O)N2CCCCC2C)cc1 (stereo not given) | > 40.4 µg/mL |
| O=C(CSCc1ccc(F)cc1)NCc1ccc(F)cc1 | 44 µg/mL (≈ 143 µM) |
| COc1ccc(C(=O)C2CCCN(Cc3cccc(C)n3)C2)c(OC)c1 (stereo not given) | > 53.2 µg/mL |
| COc1ccc2[nH]c3c(=O)n(CCc4ccccc4)cnc3c2c1 | 0.6 µg/mL (≈ 1.88 µM) |
| COc1ccc(C(=O)C23CN4CN(CN(C4)C2)C3)cc1 | > 41 µg/mL |
| Fc1ccc(CNCCc2ccc3c(c2)OCO3)cc1 | 31.1 µg/mL (≈ 114 µM) |
| Cc1noc(C)c1CSCC(=O)Nc1ccc(C#N)c(Cl)c1 | > 50.4 µg/mL |
| Cc1cccc(NC(=S)NCCc2ccc(F)cc2)c1C | 2.8 µg/mL (≈ 9.26 µM) |
| O=C(N/N=C1\CC2CC=CC12)c1ccc(Br)cc1 (stereo not given) | > 45.8 µg/mL |
| CCOc1ccc(NC(=O)NCc2ccc3c(c2)OCO3)cc1 | 1.8 µg/mL (≈ 5.73 µM) |
| CSc1nc(Nc2ccc(Cl)cc2)c(C#N)c(=O)[nH]1 | 7.8 µg/mL (≈ 26.6 µM) |
| COc1ccc(S(=O)(=O)Nc2noc3ccccc23)cc1 | 42.1 µg/mL (≈ 138 µM) |
| COc1ccc(NC(=O)C2(c3ccccc3)CCCC2)cc1 | 2.6 µg/mL (≈ 8.8 µM) |
| C=CCNc1nc(N)c([N+](=O)[O-])c(Nc2ccccc2OC)n1 | 0.4 µg/mL (≈ 1.26 µM) |
| COC(=O)c1cn(C(=O)c2cc(Cl)ccc2Cl)c2ccccc12 | < 0.7 µg/mL |
| CCCCN(C(=O)C1CCCC1)c1c(N)n(Cc2ccccc2)c(=O)[nH]c1=O | 3.6 µg/mL (≈ 9.36 µM) |
| CCOC(=O)CC(=O)CSc1nccc(-c2cccnc2)n1 | > 47.6 µg/mL |
| CN1C(=O)NC(c2ccc(Cl)cc2)C2=C1CC(C)(C)CC2=O (stereo not given) | > 47.8 µg/mL |

| Structure (SMILES) | solubility kinetic |
| --- | --- |
| COc1ccc(C2CC(=O)C(C=NCCCO)=C(O)C2)cc1 (stereo not given) | > 45.5 µg/mL |
| CCc1cc2c(Nc3ccc(O)cc3)nc(C)nc2s1.Cl | 13.4 µg/mL |
| Cn1c(=O)oc2cc(S(=O)(=O)NCc3ccc(C(=O)O)cc3)ccc21 | > 54.4 µg/mL |
| C=CCN1C(=O)C2(OCCCO2)c2cc(CCCC)ccc21 | 4.5 µg/mL (≈ 14.9 µM) |
| Cc1ccc(C)c(S(=O)(=O)c2c(C)cc(C)[nH]c2=O)c1 | 28.9 µg/mL (≈ 99.2 µM) |
| CC1(C)CC(NC2C3CC4CC(C3)CC2C4)CC(C)(C)N1.Cl (stereo not given) | > 54.5 µg/mL |
| CCCN(CCC)C(=O)CC(c1ccccc1)C1CCOC(C)(C)C1 (stereo not given) | 50.3 µg/mL (≈ 146 µM) |
| CC(C)c1ccc(C(O)P(=O)(OCc2ccccc2)c2ccc(N(C)C)cc2)cc1 (stereo not given) | 6.2 µg/mL (≈ 14.6 µM) |
| O=C(CSc1nc(C2CC2)nc2ccccc12)Nc1ccccc1 | < 0.2 µg/mL |
| COC(=O)c1ccccc1CC1SC(N)=NC1=O (stereo not given) | > 39.6 µg/mL |
| Cc1c(-c2ccc(Cl)cc2)[n+](=O)c2c(n1[O-])CCCC2 | > 43.6 µg/mL |
| Cc1c(Cl)cccc1NC(=O)Cn1c(-c2ccc(F)cc2)noc1=O | 4 µg/mL (≈ 11.1 µM) |
| Cc1ccc(S(=O)(=O)N(C)C)cc1NC(=O)Nc1ccccc1F | 1.7 µg/mL (≈ 4.84 µM) |
| COc1ccc(C(=O)CC(=O)C(=O)Nc2ccc(Cl)cc2)cc1 | 5.5 µg/mL (≈ 16.6 µM) |
| c1ccc(CCc2ccncc2)cc1 | 13 µg/mL (≈ 70.9 µM) |
| O=c1c2ccccc2nc(/C=C/c2ccc(F)cc2)n1-c1ccccc1O | 5.2 µg/mL (≈ 14.5 µM) |
| Nc1nc(Nc2ccc(Cl)cc2)nc(NCc2ccco2)c1[N+](=O)[O-] | 1 µg/mL (≈ 2.77 µM) |
| COc1ccc(CCC(=O)NCCc2cnc[nH]2)cc1 | 35.2 µg/mL (≈ 129 µM) |
| Brc1ccc(C2=CSC3=NCCN23)cc1 | 28.9 µg/mL (≈ 103 µM) |
| CCC(C)NC(=O)C1=CCN(S(=O)(=O)c2ccc(C)cc2)CC1 (stereo not given) | 43.5 µg/mL (≈ 129 µM) |
| COc1ccc(CCNC(=O)COC(=O)Cc2ccccc2F)cc1 | > 51.8 µg/mL |
| Cl.O=C(CN1CCOCC1)c1ccc(Br)cc1 | > 48.1 µg/mL |
| Cc1cccc(OCC(=O)N2CCc3ccccc3C2)c1 | 34.6 µg/mL (≈ 123 µM) |
| Cc1cc(C(=O)NCc2ccc(F)cc2)c2ccccc2n1 | 15.8 µg/mL (≈ 53.7 µM) |

| Structure (SMILES) | solubility kinetic |
| --- | --- |
| CCCCC1(C)NC(=O)N(CC(=O)Nc2ccc(Cl)cc2C)C1=O (stereo not given) | 48.7 µg/mL (≈ 138 µM) |
| O=C(Cn1cc(C(F)(F)F)ccc1=O)OCC(=O)c1ccc[nH]1 | > 49.2 µg/mL |
| COc1ccc(NC(=O)Nc2ccc3nonc3c2)cc1 | 5.3 µg/mL (≈ 18.6 µM) |
| Cc1cnc(NC(=O)c2ccc3c(c2)OCCO3)s1 | 4.4 µg/mL (≈ 15.9 µM) |
| COc1ccc(NC(=O)CCN2C(=O)c3ccccc3C2=O)c(OC)c1 | 21.8 µg/mL (≈ 61.5 µM) |
| O=C(CC(=O)c1ccccc1)Nc1ccc(Cl)cc1 | 3.3 µg/mL (≈ 12.1 µM) |
| O=C(/C=C/c1ccccc1)Nc1cccnc1Cl | 38.8 µg/mL (≈ 150 µM) |
| CC1CN(CC(=O)Nc2ccc(Br)cn2)CC(C)O1 (stereo not given) | > 49.2 µg/mL |
| CC(NC(=O)CCc1ccccc1)c1ccc2c(c1)OCO2 (stereo not given) | 42 µg/mL (≈ 141 µM) |
| COc1cc(OC)c(OC)cc1/C=C1/C(=O)N=C(N)N1C | 34.5 µg/mL (≈ 118 µM) |
| O=S(=O)(Cc1cc(-c2ccccc2)no1)c1ccccc1 | 3.4 µg/mL (≈ 11.4 µM) |
| O=C(O)Cn1c(=O)c(-c2ccccc2)nc2ccccc21 | > 42 µg/mL |
| CC(C)(C)NC(=O)C(=O)NCc1ccccn1 | > 35.3 µg/mL |
| O=C(c1ccccc1Cl)N1CCSCC1 | 31.7 µg/mL (≈ 131 µM) |
| O=C1NC(=O)N(Cc2ccc(F)cc2)C(=O)/C1=C\C=C\c1ccco1 | 10 µg/mL (≈ 29.4 µM) |
| Cc1cc(NC(=O)CC2CCCC2)ccc1Br | 1.6 µg/mL (≈ 5.4 µM) |
| O=C(O)/C=C/C(=O)Nc1ccc(C(=O)c2ccccc2)cc1 | > 44.3 µg/mL |
| CCc1cccc(CC)c1NC(=O)CNCc1cccs1 | 18.7 µg/mL (≈ 61.8 µM) |
| CCCN1CCN(C(=O)c2c(Cl)cnn2C)CC1 | > 40.6 µg/mL |
| C=CCn1cccc(C(=O)Nc2ccc(OC)c(Cl)c2)c1=O | 1.5 µg/mL (≈ 4.71 µM) |
| COC(=O)[C@H](Cc1ccccc1)NC(=O)c1ccc2ccccc2n1 | 23.6 µg/mL (≈ 70.6 µM) |
| CCC(C)(C)c1ccc(OCC(=O)Nc2ccncc2)cc1 | 2.6 µg/mL (≈ 8.71 µM) |
| CCSS(=O)(=O)c1cccc2cccnc12 | > 38 µg/mL |
| O=C(O)C1C2C=CC(C2)C1C(=O)NCc1ccco1 (stereo not given) | 36.2 µg/mL (≈ 139 µM) |

| Structure (SMILES) | solubility kinetic |
| --- | --- |
| CC(=O)c1csc(Nc2ccccc2Cl)n1 | 32.8 µg/mL (≈ 130 µM) |
| CC(C)CN(C(=O)CSc1nc2ccccc2[nH]1)C1CCS(=O)(=O)C1 (stereo not given) | > 57.2 µg/mL |
| CCCc1cc(=O)[nH]c(SCC(=O)Nc2sc3c(c2C(N)=O)CCCC3)n1 | 9 µg/mL (≈ 22.1 µM) |
| CCn1c(=O)c(C(=O)NCCCc2ccccc2)c(O)c2ccccc21 | < 0.4 µg/mL |
| Cc1nc(-c2ccccc2Cl)sc1C(=O)/C=C/N(C)C | 10.8 µg/mL (≈ 35.2 µM) |
| Cc1[nH]c2ccc(C(=O)NCCCN3CCCC3)cc2c1C | > 44.9 µg/mL |
| CN1CCc2c(sc3c2C(=O)NC(/C=C\c2ccccc2)N3)C1 (stereo not given) | 44.6 µg/mL (≈ 137 µM) |
| CC(C)(C)C(=O)N1CCn2c1nc1ccccc12 | 31.9 µg/mL (≈ 131 µM) |
| Cc1cc(NC(=O)c2ccco2)c(=O)n(Cc2c(F)cccc2Cl)c1 | < 0.4 µg/mL |
| Cc1c(C(=O)N2CCN(S(=O)(=O)c3ccccc3)CC2)oc2ccc(Br)cc12 | 6.8 µg/mL (≈ 14.7 µM) |
| CCc1ccc(OCCCCCn2ccnc2)cc1 | 19.5 µg/mL (≈ 75.5 µM) |
| CC(=O)NC1CCN(CC(=O)Nc2cccc([N+](=O)[O-])c2)CC1 | 43.7 µg/mL (≈ 136 µM) |
| Cc1ccc(C(=O)OCC(=O)NC2CCCCCC2)c(C)c1 | 4.6 µg/mL (≈ 15.2 µM) |
| COC(=O)c1c(C)[nH]c(C)c1C(C)=O | > 29.3 µg/mL |
| O=C(CN1CCN(c2ccccc2)CC1)N1CCc2ccccc21 | 7 µg/mL (≈ 21.8 µM) |
| COc1cccc(/C=C/C(=O)OCC(=O)N2CCCC2)c1OC | > 47.9 µg/mL |
| O=C(COc1cccnc1[N+](=O)[O-])N1CCC(Cc2ccccc2)CC1 | 51.9 µg/mL (≈ 146 µM) |
| CC(C)Oc1nc(-c2ccc(Cl)cc2)nc2ccccc12 | < 0.3 µg/mL |
| CCCCNC(=O)c1cc2c(=O)n(CC)c3ccccc3c2s1 | < 0.4 µg/mL |
| O=C1[C@@H]2C(c3ccc(F)cc3)=NO[C@@H]2C(=O)N1Cc1ccccc1 | 7.8 µg/mL (≈ 24.1 µM) |
| CCCOc1nc2ccccc2cc1/C=C/C(=O)O | 8.3 µg/mL (≈ 32.3 µM) |
| COc1ccc2oc(C(=O)Nc3ccccn3)c(C)c2c1 | 22 µg/mL (≈ 77.9 µM) |
| O=C(/C=C/c1cccc(C(F)(F)F)c1)N1CCN(c2ccccn2)CC1 | 4 µg/mL (≈ 11.1 µM) |
| COc1ccccc1OCC(=O)Nc1ncc(C)s1 | 41.2 µg/mL (≈ 148 µM) |

— PubChem BioAssay AID1996
